Where “and” joins values, the source holds several entries; their conditions need not be identical. Equal values may be shown once. Inconclusive results and toxic doses are left out.

The assay has as its system L1210 leukemia ip in BDF1 mice, survival T/C. Nature of the assay: NCI In Vivo Anticancer Drug Screen. Data for tumor model L1210 Leukemia (intraperitoneal) in B6D2F1 (BDF1) mice. The following applies: endpoint: mean survival time, higher = longer survival. In short, it runs like this: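 Transplanted-tumor mice were given test agent; controls received vehicle only. Survival readings from the two groups were divided (treated over control).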

The mark [1] stands for this setting: dose: 100.0 mg/kg/injection, schedule: Q01DX009 (ip), vehicle: saline.
Setting [2] is: dose: 100.0 mg/kg/injection, schedule: Q04DX003 (ip), vehicle: saline.
The mark [3] stands for this setting: dose: 200.0 mg/kg/injection, schedule: Q01DX009 (ip), vehicle: saline.
The mark [4] stands for this setting: dose: 200.0 mg/kg/injection, schedule: Q04DX003 (ip), vehicle: saline.
[5] abbreviates: dose: 400.0 mg/kg/injection, schedule: Q01DX009 (ip), vehicle: saline.
The mark [6] stands for this setting: dose: 400.0 mg/kg/injection, schedule: Q04DX003 (ip), vehicle: saline.
Setting [7] is: dose: 100.0 mg/kg/injection, schedule: Q01DX001 (ip), vehicle: saline with Tween-80.
Where [8] appears, read: dose: 200.0 mg/kg/injection, schedule: Q01DX001 (ip), vehicle: saline with Tween-80.
Where [9] appears, read: dose: 400.0 mg/kg/injection, schedule: Q01DX001 (ip), vehicle: saline with Tween-80.
[10] abbreviates: dose: 100.0 mg/kg/injection, schedule: Q04DX003 (ip), vehicle: acetone.
Setting [11] is: dose: 200.0 mg/kg/injection, schedule: Q04DX003 (ip), vehicle: acetone.
[12] abbreviates: dose: 400.0 mg/kg/injection, schedule: Q04DX003 (ip), vehicle: acetone.
Where [13] appears, read: dose: 50.0 mg/kg/injection, schedule: Q01DX001 (ip), vehicle: saline.
Where [14] appears, read: dose: 100.0 mg/kg/injection, schedule: Q01DX001 (ip), vehicle: saline.
Setting [15] is: dose: 200.0 mg/kg/injection, schedule: Q01DX001 (ip), vehicle: saline.
Setting [16] is: dose: 100.0 mg/kg/injection, schedule: Q01DX001 (ip), vehicle: carboxymethylcellulose (CMC).
The mark [17] stands for this setting: dose: 200.0 mg/kg/injection, schedule: Q01DX001 (ip), vehicle: carboxymethylcellulose (CMC).
Where [18] appears, read: dose: 400.0 mg/kg/injection, schedule: Q01DX001 (ip), vehicle: carboxymethylcellulose (CMC).
[19] abbreviates: dose: 100.0 mg/kg/injection, schedule: Q01DX009 (ip), vehicle: Klucel (hydroxypropylcellulose) (HPC).
[20] abbreviates: dose: 200.0 mg/kg/injection, schedule: Q01DX009 (ip), vehicle: Klucel (hydroxypropylcellulose) (HPC).
The mark [21] stands for this setting: dose: 400.0 mg/kg/injection, schedule: Q01DX009 (ip), vehicle: Klucel (hydroxypropylcellulose) (HPC).
[22] abbreviates: dose: 50.0 mg/kg/injection, schedule: Q04DX002 (ip), vehicle: Klucel (hydroxypropylcellulose) (HPC).
Where [23] appears, read: dose: 100.0 mg/kg/injection, schedule: Q04DX002 (ip), vehicle: Klucel (hydroxypropylcellulose) (HPC).
The mark [24] stands for this setting: dose: 200.0 mg/kg/injection, schedule: Q04DX002 (ip), vehicle: Klucel (hydroxypropylcellulose) (HPC).
The mark [25] stands for this setting: dose: 100.0 mg/kg/injection, schedule: Q04DX003 (ip), vehicle: saline with Tween-80.
[26] abbreviates: dose: 200.0 mg/kg/injection, schedule: Q04DX003 (ip), vehicle: saline with Tween-80.
Where [27] appears, read: dose: 400.0 mg/kg/injection, schedule: Q04DX003 (ip), vehicle: saline with Tween-80.
Where [28] appears, read: dose: 50.0 mg/kg/injection, schedule: Q01DX009 (ip), vehicle: saline with Tween-80.
Setting [29] is: dose: 100.0 mg/kg/injection, schedule: Q01DX009 (ip), vehicle: saline with Tween-80.
The mark [30] stands for this setting: dose: 200.0 mg/kg/injection, schedule: Q01DX009 (ip), vehicle: saline with Tween-80.

For the molecule `NC(CSC(c1ccccc1)(c1ccccc1)c1ccc(C(=O)O)cc1)C(=O)O.[Ga]` (stereo not drawn), the T/C runs as follows: (dose: 100.0 mg/kg/injection, schedule: Q01DX001 (ip), vehicle: acetone) 96 % of control; under setting [1], 103 % of control; under setting [2], 106 % of control; (dose: 200.0 mg/kg/injection, schedule: Q01DX001 (ip), vehicle: acetone) 98 % of control; under setting [3], 90 % of control; under setting [4], 97 % of control. Also, the T/C reads like this: (dose: 400.0 mg/kg/injection, schedule: Q01DX001 (ip), vehicle: acetone) 112 % of control; under setting [5], 98 % of control; under setting [6], 100 % of control.
As to `O=C1c2ccccc2C(=O)N1CCCN1C(=O)c2ccccc2C1=O`, the T/C was 111 % of control under setting [7]; 104 % of control (dose: 100.0 mg/kg/injection, schedule: Q04DX002 (ip), vehicle: gum acacia); 102 % of control under setting [8]; 96 % of control (dose: 200.0 mg/kg/injection, schedule: Q04DX002 (ip), vehicle: gum acacia); 100 % of control under setting [9]; 93 % of control (dose: 400.0 mg/kg/injection, schedule: Q04DX002 (ip), vehicle: gum acacia).
`COc1cc(Nc2c3ccccc3nc3ccccc23)ccc1NS(C)(=O)=O`: the T/C (dose: 10.0 mg/kg/injection, schedule: Q01DX009 (ip), vehicle: saline with Tween-80) was 154 % of control.
For the molecule `CCOC(=O)CCSc1ccc(NC)cc1`, the T/C was 94 % of control under setting [1]; 102 % of control under setting [10]; 96 % of control under setting [3]; 102 % of control under setting [11]; 97 % of control under setting [5]; 105 % of control under setting [12].
As for `CCOP(=S)(S)OCC.[Pd]`, the T/C runs as follows: (dose: 12.5 mg/kg/injection, schedule: Q01DX009 (ip), vehicle: other) 95 % of control; (dose: 25.0 mg/kg/injection, schedule: Q01DX009 (ip), vehicle: other) 95 % of control; under setting [13], 96 % of control; under setting [14], 100 % of control; under setting [15], 100 % of control; (dose: 400.0 mg/kg/injection, schedule: Q01DX001 (ip), vehicle: saline) 100 % of control.
In the case of `C/C(=N/O)c1ccc2c(c1)/C(=N/O)c1ccccc1-2`, the T/C reads like this: under setting [16], 109 % of control; under setting [17], 94 % of control; under setting [18], 93 % of control.
As for `C=CCC(Cc1cc(CC(CC=C)(C(=O)OCC)C(=O)OCC)cc(CC(CC=C)(C(=O)OCC)C(=O)OCC)c1)(C(=O)OCC)C(=O)OCC`, the T/C reads like this: under setting [10], 107 % of control; under setting [11], 90 % of control; under setting [12], 96 % of control.
`CC1CCCCN1C(=O)Nc1ccc(Cl)cc1[N+](=O)[O-]` (stereo not drawn): the T/C is 100 % of control under setting [19], 91 % of control under setting [20] and 92 % of control under setting [21].
Consider `O=C(NC(C(=O)c1ccccc1)c1ccccc1)c1ccccc1` (stereo not drawn), for which the T/C was 98 % of control under setting [22]; 86 % of control under setting [19]; 92 % of control under setting [23]; 106 % of control under setting [24]; 101 % of control under setting [21].
For `O=C(NCOC(c1ccccc1)c1ccccc1)c1cccnc1`, the T/C is, setting by setting: under setting [2], 89 % of control; under setting [4], 86 % of control; under setting [6], 92 % of control.
As to `CC1(C)C/C(=C\c2ccccc2)C(=O)c2ccccc21`, the T/C runs as follows: under setting [25], 107 % of control; under setting [26], 96 % of control; under setting [27], 96 % of control.
With `COC(=O)/C(=C\c1cccnc1)NC(=O)c1ccccc1`, the T/C is, setting by setting: under setting [13], 100 % of control; under setting [14], 100 % of control; under setting [2], 97 % of control; under setting [15], 103 % of control; under setting [4], 95 % of control; under setting [6], 97 % of control.
Consider `C#CCCCc1ccccc1`, for which the T/C (dose: 50.0 mg/kg/injection, schedule: Q01DX001 (ip), vehicle: carboxymethylcellulose (CMC)) was 102 % of control; the T/C under setting [16] was 98 % of control; the T/C under setting [17] is 96 % of control; the T/C under setting [18] was 96 % of control.
Consider `c1ccc(-c2cc(-c3ccccc3)on2)cc1`, for which the T/C runs as follows: (dose: 100.0 mg/kg/injection, schedule: Q04DX003 (ip), vehicle: Klucel (hydroxypropylcellulose) (HPC)) 100 % of control; (dose: 200.0 mg/kg/injection, schedule: Q04DX003 (ip), vehicle: Klucel (hydroxypropylcellulose) (HPC)) 98 % of control; (dose: 400.0 mg/kg/injection, schedule: Q04DX003 (ip), vehicle: Klucel (hydroxypropylcellulose) (HPC)) 102 % of control.
For the molecule `C1CCC2(CC1)OOC1(CCCCC1)OOC1(CCCC1)OO2`, the T/C runs as follows: under setting [28], 104 % of control; under setting [29], 96 % of control; under setting [30], 110 % of control.
Regarding `O=C(N/N=C/Cc1ccccc1)C(=O)N/N=C/Cc1ccccc1`, the T/C is, setting by setting: under setting [28], 102 % of control; under setting [29], 91 % of control.
For the molecule `CCON=C1C(C)(C)C(C)(C)C(C)(C)C1(C)C`, the T/C under setting [19] was 98 % of control, the T/C under setting [20] was 95 % of control and the T/C under setting [21] is 96 % of control.
As to `O=C1c2ccccc2C(=O)N1N1C(=O)C2C3CCC(O3)C2C1=O` (stereo not drawn), the T/C reads like this: under setting [7], 97 % of control and 91 % of control; (dose: 100.0 mg/kg/injection, schedule: Q04DX002 (ip), vehicle: saline with Tween-80) 101 % of control and 106 % of control; under setting [25], 93 % of control and 95 % of control; under setting [8], 94 % of control and 90 % of control; (dose: 200.0 mg/kg/injection, schedule: Q04DX002 (ip), vehicle: saline with Tween-80) 105 % of control; under setting [26], 95 % of control and 100 % of control. The T/C was 96 % of control and 97 % of control under setting [9]; 94 % of control and 101 % of control (dose: 400.0 mg/kg/injection, schedule: Q04DX002 (ip), vehicle: saline with Tween-80); 95 % of control and 100 % of control under setting [27].
Take `COc1ccc(/C=N\NC(=O)N/N=C/c2ccc(OC)c(Br)c2)cc1Br`: the T/C is 106 % of control under setting [22]; 98 % of control and 103 % of control under setting [23]; 88 % of control under setting [24]; 91 % of control (dose: 400.0 mg/kg/injection, schedule: Q04DX002 (ip), vehicle: Klucel (hydroxypropylcellulose) (HPC)).
For `CCCC(F)C(=O)OCC` (stereo not drawn), the T/C is 108 % of control under setting [29]; 98 % of control under setting [25]; 94 % of control under setting [30]; 96 % of control under setting [26]; 87 % of control (dose: 400.0 mg/kg/injection, schedule: Q01DX009 (ip), vehicle: saline with Tween-80); 106 % of control under setting [27].
For the molecule `Cc1ccc[n+](Cc2ccccc2)c1`, the T/C by setting is: (dose: 12.5 mg/kg/injection, schedule: Q04DX003 (ip), vehicle: saline) 98 % of control; (dose: 25.0 mg/kg/injection, schedule: Q04DX003 (ip), vehicle: saline) 101 % of control; (dose: 50.0 mg/kg/injection, schedule: Q04DX003 (ip), vehicle: saline) 97 % of control.
On to `CCOC(OCC)c1nc(NC(C)=O)[nH]c(=O)c1CCCCc1ccccc1`, for which the T/C runs as follows: under setting [8], 88 % of control; under setting [9], 91 % of control.

The values above are taken from PubChem BioAssay AID248 (DTP/NCI, 2004).
